Patent publication US20100021392A1, “Vapor-phase application of spinosyn for the control of pest, and formulations and products utilizing the same” (priority 2006, published 2010)

Legend:
birds = details: in vivo; cited from earlier work
mammals [1] = details: in vivo; cited from earlier work
fish = details: in vivo; cited from earlier work
[2] = Evaporation test of spinosad from impregnated paper mats on mat diffusers (HPLC); format: physicochemical; details: Example 1 mat, initial 80 mgs per mat; for Percentage of Spinosad Evaporated: 8 h
Protocol: Paper mats having dimensions of 35 mm (length)×21.5 mm (width)×2.5 mm (thickness) were then gradually impregnated with 0.84-1.70 grams of the above upper phase mixture (depending on its content in spinosad) so as to have approximately 80 mgs of pure spinosad per mat. The mats were left at a temperature of approximately 30° C. for 3 hours during which time most of the ethyl alcohol was evaporated. Next the mats were closed within foil comprising metallized polyethylene terepthalate PET 12 μm/adhesive/PET 35 μm. The mats were allowed to rest for 24 hours to allow for complete spread of the liquid material within the paper. Evaporation tests were then run as follows:
(§1) The foil was opened and a mat was removed. The mat was checked by HPLC to confirm its spinosad content. As was theoretically expected, 80 mgs of pure spinosad per mat were found. Four mats of this batch were then placed on common mat diffusers having a temperature ranging from 130° C. to 160° C. The amount of spinosad remaining on the mat was checked after each of 2, 4, and 8 hours of diffuser operation.
as §1, with “the content of spinosad.” for “its spinosad content.”, “11” for “80”, “mats” for “mats of this batch”, “of” for “of diffuser”
as §1, with “confirm the content of spinosad.” for “confirm its spinosad content.”, “expected, 10” for “expected, 80”, “mat was” for “mat were”, “mats” for “mats of this batch”, “of” for “of diffuser”

mammals [3] = details: cited from earlier work
[4] = Evaporation of liquid formulation from bottle with ceramic wick on diffuser; format: physicochemical; details: equal to 1 gram of mixture, diffuser 125°-150° C.
Protocol: PET plastic bottles were then each filled with 24 grams of the above formulation. A plastic insert and ceramic wick were then placed in the opening of the bottle and the bottle was screwed onto a common diffuser. The diffuser was operated at a temperature ranging from 125°-150° C. […] The remainder of the mixture in the bottle was then analyzed by HPLC. […] The bottle was then plugged off and stored for 12 additional hours. The bottle was again screwed onto a common diffuser, and the diffuser was operated at a temperature of 125°-150° C.

[5] = at 25° C.; cited from earlier work

Compound	toxicity to birds (birds)	toxicity to mammals (mammals [1])	toxicity to fish (fish)	Percentage of Spinosad Evaporated ([2]; diffuser temperature 130° C.) [%]	Percentage of Spinosad Evaporated ([2]; diffuser temperature 140° C.) [%]	Percentage of Spinosad Evaporated ([2]; diffuser temperature 160° C.) [%]	Quantity of Spinosad Remained on mat after 8 h of operation ([2]; diffuser temperature 130° C.) [mgs]	Quantity of Spinosad Remained on mat after 8 h of operation ([2]; diffuser temperature 140° C.) [mgs]	Quantity of Spinosad Remained on mat after 8 h of operation ([2]; diffuser temperature 160° C.) [mgs]	chronic toxicology findings (mammals [3])	pure spinosad evaporated after 8 hours [4] [mgs]	vapor pressure [5]
Spinosad	relatively low	relatively low	only slightly toxic	75	85	98	20	12	2	not carcinogenic, teratogenic, mutagenic, or neurotoxic	20	–
CC[C@H]1CCC[C@H](O[C@H]2CC[C@H](N(C)C)[C@@H](C)O2)[C@@H](C)C(=O)C2=C[C@@H]3[C@@H](C=C[C@@H]4C[C@@H](O[C@@H]5O[C@@H](C)[C@H](OC)[C@@H](OC)[C@H]5OC)C[C@@H]34)[C@@H]2CC(=O)O1 [spinosyn A]	–	–	–	–	–	–	–	–	–	–	–	2.4 ×10^−10 mmHg
